What was measured:
Type in all cases: in vivo
[1] = test system: Digitaria ciliaris; test: Weed foliar treatment test (Test 3); settings: foliar spray at 1.0 to 2.0 leaf stage of Digitaria ciliaris, 3 weeks, 25° C.
Method: (§1) Evaluation of herbicidal efficacy was carried out by comparing growth inhibition rate (%) with an untreated group, while evaluation of chemical damage was carried out by comparing growth inhibition rate (%) with the state of a complete eradication group, and were evaluated at 11 levels indicated below. • 0 (exponent): 0% to less than 10% (growth inhibition rate) • 1: 10% to less than 20% • 2: 20% to less than 30% • 3: 30% to less than 40% • 4: 40% to less than 50% • 5: 50% to less than 60% • 6: 60% to less than 70% • 7: 70% to less than 80% • 8: 80% to less than 90% • 9: 90% to less than 100% • 10: 100% Soil was filled into a 1/6000 are pot followed by seeding with Digitaria ciliaris, Chenopodium album and Amaranthus retroflexus, covering with soil, and cultivating in a glass greenhouse at an average atmospheric temperature of 25° C. Wettable powders of Target Compound (I) shown in Table 1 prepared in compliance with the preparation examples were diluted with water to the prescribed amount of chemical and uniformly sprayed onto the weeds using 150 liters of sprayed water per 10 are when Digitaria ciliaris had grown to the 1.0 to 2.0 leaf stage. After treating for 3 weeks in a glass greenhouse at an average atmospheric temperature of 25° C., the herbicidal efficacy thereof was investigated. Evaluation of herbicidal efficacy was carried out in the same manner as the above-mentioned Test Example 1.

[2] = test system: Amaranthus retroflexus; test: Weed foliar treatment test (Test 3); settings: foliar spray at 1.0 to 2.0 leaf stage of Digitaria ciliaris, 3 weeks, 25° C.
Method: as §1

[3] = test system: Chenopodium album; test: Weed foliar treatment test (Test 3); settings: foliar spray at 1.0 to 2.0 leaf stage of Digitaria ciliaris, 3 weeks, 25° C.
Method: as §1

[4] = test system: Monochoria vaginalis; test: Paddy herbicidal activity test; settings: irrigated pot, treated at 3.5 leaf stage of Echinochloa crus-galli, 30 days
Method: (§2) Rice paddy soil was filled into a 1/10000 are pot followed by the addition of suitable amounts of water and chemical fertilizer, kneading, seeding with Echinochloa crus-galli, Monochoria vaginalis and Scirpus juncoides and maintaining in an irrigated state at a water depth of 3 cm. Wettable powders of Target Compound (I) shown in Table 1 prepared in compliance with the preparation examples were diluted with a suitable amount of water, rice plants in the 2.0 leaf stage were transplanted during 3.5 leaf stage of Echinochloa crus-galli, and treated by dropping in chemical in the prescribed amount per 10 are using a pipette. After treating for 30 days in a glass greenhouse at an average atmospheric temperature of […], the herbicidal efficacy thereof was investigated. Evaluation of herbicidal efficacy was carried out by comparing growth inhibition rate (%) with an untreated group, while evaluation of chemical damage was carried out by comparing growth inhibition rate (%) with the state of a complete eradication group, and were evaluated at 11 levels indicated below. • 0 (exponent): 0% to less than 10% (growth inhibition rate) • 1: 10% to less than 20% • 2: 20% to less than 30% • 3: 30% to less than 40% • 4: 40% to less than 50% • 5: 50% to less than 60% • 6: 60% to less than 70% • 7: 70% to less than 80% • 8: 80% to less than 90% • 9: 90% to less than 100% • 10: 100%

[5] = test system: Scirpus juncoides; test: Paddy herbicidal activity test; settings: irrigated pot, treated at 3.5 leaf stage of Echinochloa crus-galli, 30 days
Method: as §2

[6] = test system: Echinochloa crus-galli; test: Paddy herbicidal activity test; settings: irrigated pot, treated at 3.5 leaf stage of Echinochloa crus-galli, 30 days
Method: as §2

[7] = test system: Digitaria ciliaris; test: Farming soil treatment test; settings: soil surface spray prior to weed growth, 30 days, 30° C.
Method: (§3) Evaluation of herbicidal efficacy was carried out by comparing growth inhibition rate (%) with an untreated group, while evaluation of chemical damage was carried out by comparing growth inhibition rate (%) with the state of a complete eradication group, and were evaluated at 11 levels indicated below. • 0 (exponent): 0% to less than 10% (growth inhibition rate) • 1: 10% to less than 20% • 2: 20% to less than 30% • 3: 30% to less than 40% • 4: 40% to less than 50% • 5: 50% to less than 60% • 6: 60% to less than 70% • 7: 70% to less than 80% • 8: 80% to less than 90% • 9: 90% to less than 100% • 10: 100% Field soil was filled into a 1/6000 are pot followed by seeding with Digitaria ciliaris, Chenopodium album and Amraranthus retroflexus and covering with soil. Wettable powders of compounds of formula (I) shown in Table 1 prepared in compliance with the preparation examples were diluted with water to the prescribed amount of chemical and uniformly sprayed onto each soil surface layer using 100 liters of sprayed water per 10 are prior to weed growth following seeding. After treating for 30 days in a glass greenhouse at an average atmospheric temperature of 30° C., the herbicidal efficacy thereof was investigated. Evaluation of herbicidal efficacy was carried out in the same manner as the above-mentioned Test Example 1,

[8] = test system: Amaranthus retroflexus; test: Farming soil treatment test; settings: soil surface spray prior to weed growth, 30 days, 30° C.
Method: as §3

[9] = test system: Chenopodium album; test: Farming soil treatment test; settings: soil surface spray prior to weed growth, 30 days, 30° C.
Method: as §3

[10] = test system: Digitaria ciliaris; test: Weed foliar treatment test (Test 4, higher leaf stage); settings: 10 g a.i./10a; foliar spray at 4.0 to 5.0 leaf stage of Digitaria ciliaris (plant height 10 cm to 15 cm); 20 days, 25° C.
Method: (§4) Evaluation of herbicidal efficacy was carried out by comparing growth inhibition rate (%) with an untreated group, while evaluation of chemical damage was carried out by comparing growth inhibition rate (%) with the state of a complete eradication group, and were evaluated at 11 levels indicated below. • 0 (exponent): 0% to less than 10% (growth inhibition rate) • 1: 10% to less than 20% • 2: 20% to less than 30% • 3: 30% to less than 40% • 4: 40% to less than 50% • 5: 50% to less than 60% • 6: 60% to less than 70% • 7: 70% to less than 80% • 8: 80% to less than 90% • 9: 90% to less than 100% • 10: 100% Field soil was filled into a 1/4500 are pot followed by seeding with Digitaria ciliaris and Galinsoga parviflora, covering with soil and cultivating in a glass greenhouse at an average atmospheric temperature of 25° C. Wettable powders of Target Compound (I) shown, in Table 1 prepared in compliance with the preparation examples were diluted with water to the prescribed amount of chemical and uniformly sprayed onto the weeds using 100 liters of sprayed water per 10 are when Digitaria ciliaris had grown to the 4.0 to 5.0 leaf stage (plant height: 10 cm to 15 cm). After treating for 20 days in a glass greenhouse at an average atmospheric temperature of 25° C., the herbicidal efficacy thereof was investigated. Evaluation of herbicidal efficacy was carried out in the same manner as the above-mentioned Test Example 1.

[11] = test system: Galinsoga parviflora; test: as above; settings: 10 g a.i./10a; foliar spray at 4.0 to 5.0 leaf stage of Digitaria ciliaris; 20 days, 25° C.
Method: as §4

[12] = test system: Oryza sativa; test: Paddy herbicidal activity test, chemical damage to transplanted rice; settings: rice transplanted in 2.0 leaf stage, 30 days
Method: as §2

Question: Which results are given for `CC(=O)Nc1c([N+](=O)[O-])cnn1-c1nn2c(c1Cl)CCCC2` [Control Agent 2.17]?
Answer: herbicidal efficacy (growth inhibition rate level), Digitaria ciliaris ([1]; 5 g a.i./10a): 2 (2: 20% to less than 30%); herbicidal efficacy (growth inhibition rate level), Digitaria ciliaris ([1]; 10 g a.i./10a): 2 (2: 20% to less than 30%); herbicidal efficacy (growth inhibition rate level), Amaranthus retroflexus ([2]; 5 g a.i./10a): 6 (6: 60% to less than 70%); herbicidal efficacy (growth inhibition rate level), Amaranthus retroflexus ([2]; 10 g a.i./10a): 6 (6: 60% to less than 70%); herbicidal efficacy (growth inhibition rate level), Chenopodium album ([3]; 5 g a.i./10a): 0 (0 (exponent): 0% to less than 10% (growth inhibition rate)); herbicidal efficacy (growth inhibition rate level), Chenopodium album ([3]; 10 g a.i./10a): 1 (1: 10% to less than 20%); herbicidal efficacy (growth inhibition rate level), Monochoria vaginalis ([4]; 1 g a.i./10a): 1 (1: 10% to less than 20%); herbicidal efficacy (growth inhibition rate level), Monochoria vaginalis ([4]; 5 g a.i./10a): 2 (2: 20% to less than 30%); herbicidal efficacy (growth inhibition rate level), Scirpus juncoides ([5]; 1 g a.i./10a): 0 (0 (exponent): 0% to less than 10% (growth inhibition rate)); herbicidal efficacy (growth inhibition rate level), Scirpus juncoides ([5]; 5 g a.i./10a): 1 (1: 10% to less than 20%); herbicidal efficacy (growth inhibition rate level), Echinochloa crus-galli ([6]; 1 g a.i./10a): 1 (1: 10% to less than 20%); herbicidal efficacy (growth inhibition rate level), Echinochloa crus-galli ([6]; 5 g a.i./10a): 1 (1: 10% to less than 20%); herbicidal efficacy (growth inhibition rate level), Digitaria ciliaris ([7]; 5 g a.i./10a): 0 (0 (exponent): 0% to less than 10% (growth inhibition rate)); herbicidal efficacy (growth inhibition rate level), Digitaria ciliaris ([7]; 10 g a.i./10a): 1 (1: 10% to less than 20%); herbicidal efficacy (growth inhibition rate level), Amaranthus retroflexus ([8]; 5 g a.i./10a): 4 (4: 40% to less than 50%); herbicidal efficacy (growth inhibition rate level), Amaranthus retroflexus ([8]; 10 g a.i./10a): 5 (5: 50% to less than 60%); herbicidal efficacy (growth inhibition rate level), Chenopodium album ([9]; 5 g a.i./10a): 0 (0 (exponent): 0% to less than 10% (growth inhibition rate)); herbicidal efficacy (growth inhibition rate level), Chenopodium album ([9]; 10 g a.i./10a): 1 (1: 10% to less than 20%); herbicidal efficacy (growth inhibition rate level), Digitaria ciliaris [10]: 0 (0 (exponent): 0% to less than 10% (growth inhibition rate)); herbicidal efficacy (growth inhibition rate level), Galinsoga parviflora [11]: 5 (5: 50% to less than 60%); chemical damage (growth inhibition rate level), Oryza sativa ([12]; 1 g a.i./10a): 0 (0 (exponent): 0% to less than 10% (growth inhibition rate)); chemical damage (growth inhibition rate level), Oryza sativa ([12]; 5 g a.i./10a): 1 (1: 10% to less than 20%)

Question: How did the “herbicidal efficacy (growth inhibition rate level), Digitaria ciliaris” value ([1]; 5 g a.i./10a) turn out when `CCC(=O)Nc1c(C#N)cnn1-c1nn2c(c1Cl)CCCC2` [Control Agent 4.187] was run?
Answer: The value was 2 (2: 20% to less than 30%).

Question: What about the “herbicidal efficacy (growth inhibition rate level), Digitaria ciliaris” value ([1]; 10 g a.i./10a) of the same compound?
Answer: The value was 3 (3: 30% to less than 40%).

Question: And the “herbicidal efficacy (growth inhibition rate level), Amaranthus retroflexus” value ([2]; 5 g a.i./10a)?
Answer: The value was 5 (5: 50% to less than 60%).

Question: And the “herbicidal efficacy (growth inhibition rate level), Amaranthus retroflexus” value ([2]; 10 g a.i./10a)?
Answer: Its value is 6 (6: 60% to less than 70%).

Question: And the “herbicidal efficacy (growth inhibition rate level), Chenopodium album” value ([3]; 5 g a.i./10a)?
Answer: The value was 2 (2: 20% to less than 30%).

Question: What about the “herbicidal efficacy (growth inhibition rate level), Chenopodium album” value ([3]; 10 g a.i./10a) of the same compound?
Answer: Its value is 3 (3: 30% to less than 40%).

Question: What about the “herbicidal efficacy (growth inhibition rate level), Monochoria vaginalis” value ([4]; 1 g a.i./10a) of the same compound?
Answer: Its value is 3 (3: 30% to less than 40%).

Question: And the “herbicidal efficacy (growth inhibition rate level), Monochoria vaginalis” value ([4]; 5 g a.i./10a)?
Answer: Its value is 3 (3: 30% to less than 40%).

Question: What about the “herbicidal efficacy (growth inhibition rate level), Scirpus juncoides” value ([5]; 1 g a.i./10a) of the same compound?
Answer: The value was 0 (0 (exponent): 0% to less than 10% (growth inhibition rate)).

Question: What about the “herbicidal efficacy (growth inhibition rate level), Scirpus juncoides” value ([5]; 5 g a.i./10a) of the same compound?
Answer: The value was 1 (1: 10% to less than 20%).

Question: What about the “herbicidal efficacy (growth inhibition rate level), Echinochloa crus-galli” value ([6]; 1 g a.i./10a) of the same compound?
Answer: The value was 2 (2: 20% to less than 30%).

Question: What about the “herbicidal efficacy (growth inhibition rate level), Echinochloa crus-galli” value ([6]; 5 g a.i./10a) of the same compound?
Answer: The value was 3 (3: 30% to less than 40%).

Question: And the “herbicidal efficacy (growth inhibition rate level), Digitaria ciliaris” value ([7]; 5 g a.i./10a)?
Answer: Its value is 2 (2: 20% to less than 30%).

Question: And the “herbicidal efficacy (growth inhibition rate level), Digitaria ciliaris” value ([7]; 10 g a.i./10a)?
Answer: The value was 3 (3: 30% to less than 40%).

Question: What about the “herbicidal efficacy (growth inhibition rate level), Amaranthus retroflexus” value ([8]; 5 g a.i./10a) of the same compound?
Answer: The value was 4 (4: 40% to less than 50%).

Question: And the “herbicidal efficacy (growth inhibition rate level), Amaranthus retroflexus” value ([8]; 10 g a.i./10a)?
Answer: The value was 5 (5: 50% to less than 60%).

Question: And the “herbicidal efficacy (growth inhibition rate level), Chenopodium album” value ([9]; 5 g a.i./10a)?
Answer: The value was 2 (2: 20% to less than 30%).

Question: And the “herbicidal efficacy (growth inhibition rate level), Chenopodium album” value ([9]; 10 g a.i./10a)?
Answer: Its value is 3 (3: 30% to less than 40%).

Question: And the “herbicidal efficacy (growth inhibition rate level), Digitaria ciliaris” value [10]?
Answer: Its value is 2 (2: 20% to less than 30%).

Question: And the “herbicidal efficacy (growth inhibition rate level), Galinsoga parviflora” value [11]?
Answer: Its value is 3 (3: 30% to less than 40%).

Question: What about the “chemical damage (growth inhibition rate level), Oryza sativa” value ([12]; 1 g a.i./10a) of the same compound?
Answer: The value was 1 (1: 10% to less than 20%).

Question: And the “chemical damage (growth inhibition rate level), Oryza sativa” value ([12]; 5 g a.i./10a)?
Answer: The value was 2 (2: 20% to less than 30%).
